Experimental data published in patent US20160175318A1, “COMPOSITIONS COMPRISING ANTIBACTERIAL AGENT AND TAZOBACTAM” (WOCKHARDT LIMITED, priority 2013, published 2016).
Read-outs that look alike come from different tables or passages of the source.

How the values were obtained:
Assay type in all cases: cell-based
[1] = test system: E. cloacae M-20; test: MIC by agar dilution (CLSI) against highly resistant ESBL strain
Experimental: (§1) The results on activity of cefepime and other cephalosporin antibacterial agents in combination with tazobactam against highly resistant ESBL strains are given Table 1. In a typical study, overnight grown bacterial cultures were diluted appropriately and inoculated on the agar media containing doubling dilutions of the antibiotic. Observation for growth or no growth was performed after 16-20 h of incubation at 35±2° C. in ambient air. The overall procedure was performed as per Clinical and Laboratory Standards Institute (CLSI) recommendations. This experimental was followed for Examples 2-4 and 6 below (Table 2-4 and 7).

[2] = test system: E. coli 7MP; test: as above
Experimental: as §1

[3] = test system: E. coli B-89; test: as above
Experimental: as §1

[4] = test system: E. coli M50; test: as above
Experimental: as §1

[5] = test system: K. pneumoniae M150; test: as above; conditions: Klebsiella pneumoniae
Experimental: as §1

[6] = test system: E. coli 7MP; test: Quantitative drug diffusion assay (disc, zone of inhibition, CLSI); design: key to Interpretation of zone as per CLSI recommendations: R: Resistant; I: Intermediate; S: Sensitive (Interpretation as per CLSI recommendations, 2010)
Excerpt: (§2) Activity of cefepime in combination with tazobactam and various penicillins in combination with respective ESBL inhibitors was also investigated against highly resistant ESBL strains in quantitative drug diffusion assay performed as per CLSI recommendations (Clinical and Laboratory Standards Institute (CLSI), performance Standards for Antimicrobial Susceptibility Testing, 20th Informational Supplement, M 100-S20, Volume 30, No. 1, 2010).
(§3) In a typical study, overnight grown bacterial cultures after appropriate dilution were seed inoculated in the molten, cooled agar media and plates poured. Antibiotics containing 6 mm diameter discs were place on the top of the agar surface. Zone of inhibition based observation was performed after 16-18 h of incubation at 35±2° C. in ambient air. The overall procedure was performed as per CLSI recommendations (Table 5 and 6). These assays are routinely used in determining possibility of treating a particular infection using antibiotic and/or their combinations. For example, in case of treating an infection caused by E. coli (M138) using Augmentin® [commercially available combination: Amoxicillin (500 mg)+Clavulanic acid (125 mg)], the zone inhibition values need to be in the sensitive (S) range.

[7] = test system: E. coli B-123; test: as above; design: key to Interpretation of zone as per CLSI recommendations: R: Resistant; I: Intermediate; S: Sensitive (Interpretation as per CLSI recommendations, 2010)
Excerpt: as §2, §3

[8] = test system: E. coli B-89; test: as above; design: key to Interpretation of zone as per CLSI recommendations: R: Resistant; I: Intermediate; S: Sensitive (Interpretation as per CLSI recommendations, 2010)
Excerpt: as §2, §3

[9] = test system: E. coli M-138; test: as above; design: key to Interpretation of zone as per CLSI recommendations: R: Resistant; I: Intermediate; S: Sensitive (Interpretation as per CLSI recommendations, 2010)
Excerpt: as §2, §3

[10] = test system: E. coli M50; test: as above; design: key to Interpretation of zone as per CLSI recommendations: R: Resistant; I: Intermediate; S: Sensitive (Interpretation as per CLSI recommendations, 2010)
Excerpt: as §2, §3

[11] = test system: E. coli S-112; test: as above; design: key to Interpretation of zone as per CLSI recommendations: R: Resistant; I: Intermediate; S: Sensitive (Interpretation as per CLSI recommendations, 2010)
Excerpt: as §2, §3

[12] = ESBL inhibitor 0 mcg (antibiotic alone)
[13] = Table 5, with Clavulanic acid 10 mcg
[14] = Table 6, with Clavulanic acid 10 mcg

CC1(C)S[C@@H]2[C@H](NC(=O)[C@H](N)c3ccc(O)cc3)C(=O)N2[C@H]1C(=O)O [Amoxicillin]
MIC ([1]; E. cloacae M-20, with Tazobactam 4 mcg): >64 µg/mL
MIC ([1]; E. cloacae M-20, with Tazobactam 8 mcg): >64 µg/mL
MIC ([1]; Enterobacter cloacae, M20, 20 h): > 128 µg/mL
MIC ([2]; E. coli 7MP, with Tazobactam 4 mcg): >64 µg/mL
MIC ([2]; E. coli 7MP, with Tazobactam 8 mcg): >64 µg/mL
MIC ([2]; Escherichia coli, 7MP, 20 h): > 128 µg/mL
MIC ([3]; E. coli B-89, with Tazobactam 4 mcg): >64 µg/mL
MIC ([3]; E. coli B-89, with Tazobactam 8 mcg): >64 µg/mL
MIC ([3]; Escherichia coli, B89, 20 h): > 128 µg/mL
MIC ([4]; Escherichia coli, M50, 20 h, Tazobactam 0 mcg (antibiotic alone)): > 128 µg/mL
MIC ([4]; with Tazobactam 4 mcg): >64 µg/mL
MIC ([4]; with Tazobactam 8 mcg): >64 µg/mL
MIC ([5]; M150): > 128 µg/mL
MIC ([5]; M150, K. pneumoniae M150, with Tazobactam 4 mcg, read-out: MIC): > 64 µg/mL
MIC ([5]; M150, K. pneumoniae M150, with Tazobactam 8 mcg, read-out: MIC): > 64 µg/mL
Zone of Inhibition [6, 12]: Nil
Interpretation of zone as per CLSI recommendations ([6]; Table 5, ESBL inhibitor 0 mcg): (R)
Interpretation of zone as per CLSI recommendations [6, 13]: (R)
Interpretation of zone as per CLSI recommendations ([6]; Table 6, ESBL inhibitor 0 mcg): (R)
Interpretation of zone as per CLSI recommendations [6, 14]: (R)
Zone of Inhibition ([6]; with Clavulanic acid 10 mcg): Nil
Zone of Inhibition [7, 12]: Nil
Interpretation of zone as per CLSI recommendations ([7]; Table 5, ESBL inhibitor 0 mcg): (R)
Interpretation of zone as per CLSI recommendations [7, 13]: (R)
Interpretation of zone as per CLSI recommendations ([7]; Table 6, ESBL inhibitor 0 mcg): (R)
Interpretation of zone as per CLSI recommendations [7, 14]: (R)
Zone of Inhibition ([7]; with Clavulanic acid 10 mcg): Nil
Zone of Inhibition [8, 12]: Nil
Interpretation of zone as per CLSI recommendations ([8]; Table 5, ESBL inhibitor 0 mcg): (R)
Interpretation of zone as per CLSI recommendations [8, 13]: (R)
Interpretation of zone as per CLSI recommendations ([8]; Table 6, ESBL inhibitor 0 mcg): (R)
Interpretation of zone as per CLSI recommendations [8, 14]: (R)
Zone of Inhibition ([8]; with Clavulanic acid 10 mcg): Nil
Zone of Inhibition [9, 12]: Nil
Interpretation of zone as per CLSI recommendations ([9]; Table 5, ESBL inhibitor 0 mcg): (R)
Interpretation of zone as per CLSI recommendations [9, 13]: (R)
Interpretation of zone as per CLSI recommendations ([9]; Table 6, ESBL inhibitor 0 mcg): (R)
Interpretation of zone as per CLSI recommendations [9, 14]: (R)
Zone of Inhibition ([9]; with Clavulanic acid 10 mcg): Nil
Zone of Inhibition [10, 12]: Nil
Interpretation of zone as per CLSI recommendations ([10]; Table 5, ESBL inhibitor 0 mcg): (R)
Interpretation of zone as per CLSI recommendations [10, 13]: (R)
Interpretation of zone as per CLSI recommendations ([10]; Table 6, ESBL inhibitor 0 mcg): (R)
Interpretation of zone as per CLSI recommendations [10, 14]: (R)
Zone of Inhibition ([10]; with Clavulanic acid 10 mcg): Nil
Zone of Inhibition [11, 12]: Nil
Interpretation of zone as per CLSI recommendations ([11]; Table 5, ESBL inhibitor 0 mcg): (R)
Interpretation of zone as per CLSI recommendations [11, 13]: (R)
Interpretation of zone as per CLSI recommendations ([11]; Table 6, ESBL inhibitor 0 mcg): (R)
Interpretation of zone as per CLSI recommendations [11, 14]: (R)
Zone of Inhibition ([11]; with Clavulanic acid 10 mcg): Nil
